# Data published in US5006517A, “Treatment of Prader-Willi syndrome” (Progenics, Inc., priority 1989, dated 1991).
# Like-named read-outs stand apart in the source and are kept apart here.
# Columns and labels:
# [1] = Interconversion, absorption and circulation of alpha-ET, beta-ET and ET-dione; conditions: for oxidation at the C-3 position to ET-dione: orally or parenterally (i.p., i.m. or i.v.)
# Source text: This is the subject of U.S. application Ser. No. 078,610, filed July 28, 1987 and incorporated herein by reference.
# [2] = C57BL/KsJ-db/db mice; cited from earlier work
# [3] = in diet, diabetic, genetically obese mice; cited from earlier work
# [4] = normal individuals, endogenous metabolite of DHEA; cited from earlier work
# [5] = Free alpha-ET blood levels after oral suspensions in eight normal human volunteers (crossover, RIA)
# Procedure: Each subject received all three drugs in randomized order with a one-week wash-out period between doses. Following an overnight fast, subjects received 200 mg of test drug suspended in approximately 6 oz. of apple juice. Blood samples were drawn immediately prior to drug administration and at 15 minutes, 30 minutes, 1, 2, 4, 8, 12 and 24 hours.
# [6] = genetically obese mice, variety of routes; cited from earlier work
# [7] = genetically obese or diabetic mice; cited from earlier work
# [8] = oral, severely diabetic mammals; cited from earlier work
# [9] = Body weight in C57BL/K db/db diabetic mice on ET-dione chow; assay type: in vivo, mouse (C57BL/K db/db); conditions: for 6 wk gain: 6 weeks
# Source text: (§1) Eighteen C57BL/K db/db mice were divided into three groups of 5 and one group (control) of 3. This mouse strain is more diabetic and more resistant to weight gain reduction than the mouse species used in Example 1. The mice were weighed and then permitted to consume a commercially-available chow and water ad librium over a six-week study period. At the end of each week, the mice were reweighed and their blood sugar determined. The chow supplied to three of the groups had ET-dione admixed therewith at either a 0.4, 0.6 or 0 8% concentration.
# [10] = Blood sugar in C57BL/K db/db diabetic mice on ET-dione chow; assay type: in vivo, mouse (C57BL/K db/db); parameters: Blood Sugar: unit not given here
# Source text: as §1
# [11] = A^vy /A mice, 0.4% ET-dione
# Source text: Inhibition of the development of obesity was studied in two mutant mouse strains used for diabetes evaluation: C57BL/6, C3HeB/FeJ (A^vy /A). […] C57BL/6 mice (Jackson Laboratories, Bar Harbor, ME) display the genetic obesity syndrome markers obese (ob) and diabetes (db) A^vy /A mice (Jackson Laboratories, Bar Harbor, ME) are characterized by mild obesity and an enhanced susceptibility to certain tumors.
# days during week 4 and were then returned to the 0.4% dose level.
# [12] = rat, before feeding program
# Procedure: Food consumption and body weight were measured weekly. […] Liver weight (absolute and % of body weight), total cholesterol, % of esterified cholesterol and triglycerides in the liver were also determined. In addition, epididymal fat pad weights were measured.
# [13] = not given; remark: listed apart in the source
compound,measurement,setting,value
"C[C@]12CC[C@H](O)C[C@H]1CC[C@@H]1[C@@H]2CC[C@]2(C)C(=O)CC[C@@H]12 [Beta-ET, 5-beta-androstan-3-beta-ol-17-one]",oxidation at the C-3 position to ET-dione,[1],rapidly oxidized at the C-3 position to ET-dione
same,Blood Sugar,[2],reduced blood sugar
same,effectiveness vs DHEA in preventing the development of diabetes,[2],four time more effective than DHEA
same,plasma insulin concentrations,[2],increased plasma insulin concentrations
same,protective effect on the pancreas (granules in islet beta cells),[2],protective effect on the pancreas
same,anti-obesity properties,[3],effective both in preventing and in arresting the development of obesity
"C[C@]12CC[C@@H](O)C[C@H]1CC[C@@H]1[C@@H]2CC[C@]2(C)C(=O)CC[C@@H]12 [Alpha-ET, 5-beta-androstan-3-alpha-ol-17-one]",oxidation at the C-3 position to ET-dione,[1],rapidly oxidized at the C-3 position to ET-dione
same,% W vs Control Day 28,"0.2% in diet, day 28",-9.8%
same,Blood Sugar,[2],reduced blood sugar
same,effectiveness vs DHEA in preventing the development of diabetes,[2],four time more effective than DHEA
same,plasma insulin concentrations,[2],increased plasma insulin concentrations
same,protective effect on the pancreas (granules in islet beta cells),[2],protective effect on the pancreas
same,anti-obesity properties,[3],effective both in preventing and in arresting the development of obesity
same,urinary excretion,[4],3-5 mg per day
same,levels of conjugated alpha-ET relative to free alpha-ET,[5]; 30 minutes post-administration,2-5 times
"C[C@]12CC[C@H](O)CC1=CC[C@@H]1[C@@H]2CC[C@]2(C)C(=O)CC[C@@H]12 [DHEA, 3-beta-hydroxyandrost-5-en-17-one]",rate of weight gain,[6],decreased the rate of weight gain
same,preventive effect on the development of diabetes,[7],marked preventive effect on the development of diabetes
same,glucose tolerance,[8],improved glucose tolerance
same,hyperglycemia,[8],restored hyperglycemia to normal levels
"C[C@]12CC[C@@H](O)C[C@@H]1CC[C@@H]1[C@@H]2CC[C@]2(C)C(=O)CC[C@@H]12 [androsterone, reference compound]",effectiveness vs DHEA in preventing the development of diabetes,[2],not
"C[C@]12CCC(=O)C[C@H]1CC[C@@H]1[C@@H]2CC[C@]2(C)C(=O)CC[C@@H]12 [ET-dione, 5-beta-androstanedione]",6 wk gain,[9]; 0.4% ET-dione in chow,26.1 g
same,Body Weight,"[9]; 0.4% ET-dione in chow, start",19.6 ± 1.8 g
same,Body Weight,"[9]; 0.4% ET-dione in chow, week 1",26.7 ± 1.7 g
same,Body Weight,"[9]; 0.4% ET-dione in chow, week 2",29.8 ± 1.2 g
same,Body Weight,"[9]; 0.4% ET-dione in chow, week 3",34.4 ± 0.83 g
same,Body Weight,"[9]; 0.4% ET-dione in chow, week 4",36.5 ± 0.8 g
same,Body Weight,"[9]; 0.4% ET-dione in chow, week 5",42.2 ± 1.0 g
same,Body Weight,"[9]; 0.4% ET-dione in chow, week 6",45.7 ± 0.7 g
same,6 wk gain,[9]; 0.6% ET-dione in chow,24.1 g
same,Body Weight,"[9]; 0.6% ET-dione in chow, start",18.1 ± 1.6 g
same,Body Weight,"[9]; 0.6% ET-dione in chow, week 1",23.7 ± 1.9 g
same,Body Weight,"[9]; 0.6% ET-dione in chow, week 2",27.3 ± 1.8 g
same,Body Weight,"[9]; 0.6% ET-dione in chow, week 3",31.9 ± 1.9 g
same,Body Weight,"[9]; 0.6% ET-dione in chow, week 4",34.7 ± 1.9 g
same,Body Weight,"[9]; 0.6% ET-dione in chow, week 5",39.1 ± 1.6 g
same,Body Weight,"[9]; 0.6% ET-dione in chow, week 6",42.2 ± 0.9 g
same,6 wk gain,[9]; 0.8% ET-dione in chow,21.7 g
same,Body Weight,"[9]; 0.8% ET-dione in chow, start",18.1 ± 1.0 g
same,Body Weight,"[9]; 0.8% ET-dione in chow, week 1",23.3 ± 0.7 g
same,Body Weight,"[9]; 0.8% ET-dione in chow, week 2",26.4 ± 0.6 g
same,Body Weight,"[9]; 0.8% ET-dione in chow, week 3",31.1 ± 0.76 g
same,Body Weight,"[9]; 0.8% ET-dione in chow, week 4",33.5 ± 0.91 g
same,Body Weight,"[9]; 0.8% ET-dione in chow, week 5",37.0 ± 0.9 g
same,Body Weight,"[9]; 0.8% ET-dione in chow, week 6",39.8 ± 1.2 g
same,"six-week weight gain, in words","[9]; ET-dione in chow, 0.4-0.8%",reduced the six-week weight gain
same,Blood Sugar,"[10]; 0.4% ET-dione in chow, week 1",149 ± 3.9
same,Blood Sugar,"[10]; 0.4% ET-dione in chow, week 2",156 ± 8.3
same,Blood Sugar,"[10]; 0.4% ET-dione in chow, week 3",151 ± 6.3
same,Blood Sugar,"[10]; 0.4% ET-dione in chow, week 4",148 ± 5.6
same,Blood Sugar,"[10]; 0.4% ET-dione in chow, week 5",148 ± 17.2
same,Blood Sugar,"[10]; 0.4% ET-dione in chow, week 6",168 ± 24.5
same,Blood Sugar,"[10]; 0.6% ET-dione in chow, week 1",143 ± 9.0
same,Blood Sugar,"[10]; 0.6% ET-dione in chow, week 2",124 ± 10.7
same,Blood Sugar,"[10]; 0.6% ET-dione in chow, week 3",151 ± 11.5
same,Blood Sugar,"[10]; 0.6% ET-dione in chow, week 4",152 ± 3.7
same,Blood Sugar,"[10]; 0.6% ET-dione in chow, week 5",159 ± 17
same,Blood Sugar,"[10]; 0.6% ET-dione in chow, week 6",195 ± 37
same,Blood Sugar,"[10]; 0.8% ET-dione in chow, week 1",128 ± 5.0
same,Blood Sugar,"[10]; 0.8% ET-dione in chow, week 2",126 ± 6.8
same,Blood Sugar,"[10]; 0.8% ET-dione in chow, week 3",147 ± 4.2
same,Blood Sugar,"[10]; 0.8% ET-dione in chow, week 4",148 ± 3.7
same,Blood Sugar,"[10]; 0.8% ET-dione in chow, week 5",137 ± 6.7
same,Blood Sugar,"[10]; 0.8% ET-dione in chow, week 6",184 ± 31
same,"blood sugar level vs untreated mice, in words","[10]; ET-dione in chow, 0.4-0.8%",roughly half that of the untreated mice
same,blood levels of free alpha-ET,[1]; animal and human pharmacokinetic data,increased blood levels of free alpha-ET
same,"effectiveness vs 0.1% alpha- and beta-ET, in words",[11],comparable in effectiveness to 0.1% alpha- and beta-ET
same,"RIA value for alpha-ET, initial",[12],approximately 40 nanograms per deciliter
same,effectiveness on weight gain relative to alpha-ET,all concentrations tested,almost twice as effective as alpha-ET
same,effectiveness relative to alpha-ET (general statement),"rat, in vivo","equally or, in some cases, almost twice as effective"
same,"Food consumption, Av. Wks 1-4","[13]; 0.4% in diet, average weeks 1-4",22.0 g/day
same,effectiveness in reducing food consumption relative to alpha-ET,[13]; second rat study,equally effective as alpha-ET in reducing food consumption
same,blood levels of alpha-ET over equivalent dosages of alpha-ET,[5],significantly enhanced blood levels of alpha-ET
same,"amounts of alpha-ET in blood, in words",[5]; 15 minutes to approximately 1 hour after administration,significantly higher amounts of alpha-ET
same,"free alpha-ET levels, in words, vs alpha-ET or beta-ET administration",[5]; four hours post-administration,significantly higher than from alpha-ET or beta-ET administration
"C[C@]12CC[C@H](O)C[C@@H]1CC[C@@H]1[C@@H]2CC[C@]2(C)C(=O)CC[C@@H]12 [epiandrosterone, reference compound]",effectiveness vs DHEA in preventing the development of diabetes,[2],not
